Consider nine molecules from patent US20230416329A1, “A PEPTIDE WITH DISULFIDE BONDS AND INHIBITORY ACTIVITY AGAINST SERINE PROTEASES, DERIVED HYBRID PEPTIDES THEREOF, AND USES THEREOF” (INSTITUTE OF MATERIA MEDICA , CHINESE ACADEMY OF MEDICAL …, priority 2020, published 2023).

The target in the assay is T1, bovine trypsin (Bos taurus, UniProt P00760).
T1 sequence (P00760 24-246): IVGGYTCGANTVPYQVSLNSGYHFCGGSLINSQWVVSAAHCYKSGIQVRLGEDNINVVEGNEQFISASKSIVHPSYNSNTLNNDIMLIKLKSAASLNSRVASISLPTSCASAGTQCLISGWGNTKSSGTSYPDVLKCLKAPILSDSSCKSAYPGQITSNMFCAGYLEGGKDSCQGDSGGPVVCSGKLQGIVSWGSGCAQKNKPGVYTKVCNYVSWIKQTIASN
Nature of the assay: Trypsin inhibitory activity of peptides (BApNA hydrolysis, OD405; IC50, Ki, residual activity). In kind it is biochemical. The conditions noted are these: for IC50: trypsin 50 nM, BApNA 1.22 mM, read-out: IC50. An outline of the steps:
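Trypsin (50 nM final) preincubated with peptides at 37 °C in 50 mM Tris-HCl pH 7.8, 20 mM CaCl2; BApNA added (1.22 mM final), 260 min at 37 °C, then OD405 read. Residual activity from enzyme-only and substrate-only controls; IC50 fitted and converted to Ki via Ki=IC50/(1+S/Km), Km measured separately for BApNA.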

[1] abbreviates: Ki=IC50/(1+S/Km), Km 0.33 mM, read-out: Ki.

SMILES strings stand for the structures. Where two headings read alike, the source gives them in different places. Bridge positions count the residues as written; N and C are the ends. Peptide text beside a SMILES is read from it.

On to `CC[C@H](C)[C@@H]1NC(=O)[C@@H]2CCCN2C(=O)[C@@H]2CCCN2C(=O)[C@H]([C@@H](C)CC)NC(=O)[C@H](CO)NC(=O)[C@H](CCCCN)NC(=O)[C@H](C)NC(=O)[C@H](C)NC(=O)[C@H](CCCNC(=N)N)NC(=O)CNC(=O)[C@@H](N)CSSC[C@@H](C(=O)N[C@@H](Cc2ccccc2)C(=O)O)NC1=O` [BT26] (H-CGRAAKSIPPICF-OH; disulfide 1-12; N-terminus and C-terminus assumed), for which the Residual trypsin activity (peptide 0.0098 μM) is recorded as 99.5 ± 0.9%; the Residual trypsin activity (peptide 0.098 μM) stood at 100.2 ± 1.4%; the Residual trypsin activity (peptide 0.98 μM) is listed as 94.5 ± 0.7%; the Residual trypsin activity (peptide 1.95 μM) turned out to be 77.6 ± 3.1%; the Residual trypsin activity (peptide 2.439 μM) worked out at 55.1 ± 1.3%; the Residual trypsin activity (peptide 3.90 μM) came out at 1.4 ± 0.1%. Further, the Residual trypsin activity (peptide 9.76 μM) is 0.4 ± 0.1%, the Residual trypsin activity (peptide 97.56 μM) turned out to be 0.1 ± 0.0% and the Residual trypsin activity (peptide 975.61 μM) was determined as 0.5 ± 0.0%.

By Ki is commonly meant a dissociation constant, usually derived from enzyme kinetics or from competition with a known ligand. Regarding `CC[C@H](C)[C@@H]1NC(=O)[C@@H]2CCCN2C(=O)[C@@H]2CCCN2C(=O)[C@H]([C@@H](C)CC)NC(=O)[C@H](CO)NC(=O)[C@H](CCCCN)NC(=O)[C@H]([C@@H](C)O)NC(=O)[C@H](C)NC(=O)[C@H](C)NC(=O)CNC(=O)[C@@H](N)CSSC[C@@H](C(=O)N[C@@H](Cc2ccccc2)C(=O)N2CCC[C@H]2C(=O)N[C@@H](CC(=O)O)C(=O)O)NC1=O` [BT7] (H-CGAATKSIPPICFPD-OH; disulfide 1-12; N-terminus and C-terminus assumed), the “inhibitory activity against trypsin (in words)” value (“inhibitory activity” below) was “enhanced trypsin inhibitory activity”. Further, the Residual trypsin activity (peptide 0.000098 μM) is recorded as 103.5 ± 1.6%. The Residual trypsin activity (peptide 0.0002439 μM) was 107.8 ± 3.2%. Under “peptide 0.000488 μM”, the Residual trypsin activity is recorded as 97.9 ± 4.3%. The Residual trypsin activity (peptide 0.0488 μM) was found to be 95.2 ± 1.1%. Moreover, the Residual trypsin activity (peptide 0.2439 μM) amounted to 48.5 ± 5.3%. Moreover, the Residual trypsin activity (peptide 0.98 μM) was determined as 5.7 ± 1.7%. In addition, the Residual trypsin activity (peptide 1.463 μM) stood at 2.9 ± 1.1%. The Residual trypsin activity (peptide 1.95 μM) came out at 1.5 ± 0.3%. Further, the Ki (read-out: inhibition constant (Ki) towards trypsin) stood at 50 nM.

As usually defined, the IC50 is the concentration at which inhibition is half-maximal. As to `CC[C@H](C)[C@@H]1NC(=O)[C@@H]2CCCN2C(=O)[C@@H]2CCCN2C(=O)[C@H]([C@@H](C)CC)NC(=O)[C@H](CO)NC(=O)[C@H](CCCCN)NC(=O)[C@H]([C@@H](C)O)NC(=O)[C@H](Cc2c[nH]c3ccccc23)NC(=O)[C@H](CCCNC(=N)N)NC(=O)CNC(=O)[C@@H](N)CSSC[C@@H](C(=O)O)NC(=O)[C@H](Cc2ccccc2)NC1=O` [BT40] (H-CGRWTKSIPPIFC-OH; disulfide 1-13 (inferred); N-terminus and C-terminus assumed), the IC50 was greater than 50000 nM.

In the case of `CC[C@H](C)[C@@H]1NC(=O)[C@@H]2CCCN2C(=O)[C@@H]2CCCN2C(=O)[C@H]([C@@H](C)CC)NC(=O)[C@H](CO)NC(=O)[C@H](CCCCN)NC(=O)[C@H]([C@@H](C)O)NC(=O)[C@H](C)NC(=O)[C@H](CCCNC(=N)N)NC(=O)[C@H](CCC(=O)O)NC(=O)[C@@H](N)CSSC[C@@H](C(=O)N[C@@H](Cc2ccccc2)C(=O)O)NC1=O` [BT78] (H-CERATKSIPPICF-OH; disulfide 1-12; N-terminus and C-terminus assumed), the “inhibitory activity” value is on record as “excellent trypsin inhibitory activities” and the 50% inhibitory concentration (IC50) is 30 nM.

Consider `CC[C@H](C)[C@@H]1NC(=O)[C@@H]2CCCN2C(=O)[C@@H]2CCCN2C(=O)[C@H]([C@@H](C)CC)NC(=O)[C@H](CO)NC(=O)[C@H](CCCCN)NC(=O)[C@H]([C@@H](C)O)NC(=O)[C@H](CC(N)=O)NC(=O)[C@H](CCCNC(=N)N)NC(=O)CNC(=O)[C@@H](N)CSSC[C@@H](C(=O)N[C@@H](Cc2ccccc2)C(=O)O)NC1=O` [BT55] (H-CGRNTKSIPPICF-OH; disulfide 1-12; C-terminus assumed), for which the “inhibitory activity” value is given as “excellent trypsin inhibitory activities”. Besides, the Ki under setting [1] was 60 nM.

As to `CC[C@H](C)[C@@H]1NC(=O)[C@H](CCCNC(=N)N)NC(=O)CNC(=O)[C@@H](N)CSSC[C@@H](C(=O)N[C@@H](Cc2ccccc2)C(=O)O)NC(=O)[C@H]([C@@H](C)CC)NC(=O)[C@@H]2CCCN2C(=O)[C@@H]2CCCN2C(=O)[C@H]([C@@H](C)CC)NC(=O)[C@H](CO)NC(=O)[C@H](CCCCN)NC(=O)[C@H]([C@@H](C)O)NC1=O` [BT49] (H-CGRITKSIPPICF-OH; disulfide 1-12; C-terminus assumed), the “inhibitory activity” value is “excellent trypsin inhibitory activities”. Moreover, the Ki under setting [1] worked out at 110 nM.

With `CC[C@H](C)[C@@H]1NC(=O)[C@H](CO)NC(=O)[C@H](CCCCN)NC(=O)[C@H]([C@@H](C)O)NC(=O)[C@H](C)NC(=O)[C@H](CCCNC(=N)N)NC(=O)CNC(=O)[C@@H](N)CSSC[C@@H](C(=O)N[C@@H](Cc2ccc(O)cc2)C(=O)O)NC(=O)[C@H](CCC(N)=O)NC(=O)[C@@H]2CCCN2C(=O)[C@@H]2CCCN2C1=O` [BT12] (H-CGRATKSIPPQCY-OH; disulfide 1-12; N-terminus and C-terminus assumed), the “inhibitory activity” value is given as “significant impact on their anti-trypsisn activities”. Besides, for the setting “peptide 0.0488 μM”, the Residual trypsin activity was 100.5 ± 2.0%. Besides, the Residual trypsin activity (peptide 0.2439 μM) stood at 106.5 ± 3.4%. Further, the Residual trypsin activity (peptide 0.98 μM) turned out to be 107.9 ± 1.4%. In addition, the Residual trypsin activity (peptide 3.90 μM) amounted to 68.3 ± 0.1%. Under “peptide 5.85 μM”, the Residual trypsin activity came out at 24.0 ± 1.2%. Also, the Residual trypsin activity (peptide 9.76 μM) turned out to be 0.7 ± 0.1%. Moreover, the Residual trypsin activity (peptide 14.63 μM) is recorded as 0.3 ± 0.1%. Moreover, the Residual trypsin activity (peptide 19.51 μM) is on record as −0.2 ± 0.1%.

Regarding `CC[C@H](C)[C@@H]1NC(=O)[C@@H]2CCCN2C(=O)[C@@H]2CCCN2C(=O)[C@H]([C@@H](C)CC)NC(=O)[C@H](CO)NC(=O)[C@H](CCCCN)NC(=O)[C@H]([C@@H](C)O)NC(=O)[C@H](C)NC(=O)[C@H](CCCNC(=N)N)NC(=O)[C@H](C)NC(=O)[C@@H](N)CSSC[C@@H](C(=O)N[C@@H](Cc2ccccc2)C(=O)O)NC1=O` [BT67] (H-CARATKSIPPICF-OH; disulfide 1-12), the “inhibitory activity” value is listed as “higher trypsin inhibitory activities” and the IC50 came out at 50 nM. In addition, the Ki under setting [1] came out at 10 nM. In addition, the “inhibitory activity” value (listed as SEQ ID NO: 67) is on record as “excellent trypsin inhibitory activities”. The Residual trypsin activity (peptide 0.000098 μM) was determined as 107.0 ± 5.5%. Also, the Residual trypsin activity (peptide 0.00098 μM) came to 104.4 ± 3.9%. Moreover, the Residual trypsin activity (peptide 0.0098 μM) is reported as 102.0 ± 2.4%. Moreover, under “peptide 0.0488 μM”, the Residual trypsin activity came to 49.6 ± 2.8%. For the same molecule, the Residual trypsin activity (peptide 0.0585 μM) turned out to be 39.9 ± 1.7%. Under “peptide 0.07317 μM”, the Residual trypsin activity is reported as 8.1 ± 2.5%. Besides, the Residual trypsin activity (peptide 0.098 μM) is 1.5 ± 0.3%. Besides, the Residual trypsin activity (peptide 0.98 μM) is 0.1 ± 0.2%. Besides, the Residual trypsin activity (peptide 9.76 μM) came to 0.1 ± 0.1%.

In the case of `CC[C@H](C)[C@@H]1NC(=O)[C@H](CCCCN)NC(=O)[C@@H]2CCCN2C(=O)[C@H](C)NC(=O)[C@H](CCCNC(=N)N)NC(=O)CNC(=O)[C@@H](N)CSSC[C@@H](C(=O)N[C@@H](Cc2ccccc2)C(=O)O)NC(=O)[C@H](CCCNC(=N)N)NC(=O)[C@H](CCC(N)=O)NC(=O)[C@H](CC(C)C)NC1=O` [BT44] (H-CGRAPKILQRCF-OH; disulfide 1-11 (inferred); N-terminus and C-terminus assumed), the IC50 was greater than 50000 nM.
